Results published in PMC5874719, “A π-Halogen Bond of Dibenzofuranones with the Gatekeeper Phe113 in Human Protein Kinase CK2 Leads to Potent Tight Binding Inhibitors” (Pharmaceuticals, 2018).
Where two headings read alike, the source gives them in different places.

Assays:
LCK = LCK (Homo sapiens, UniProt P06239); design: method as in PMID 22387500; conditions: 10 µM inhibitor; cited from earlier work
[1] = target: T1, human protein kinase CK2 holoenzyme (CK2α2β2) (Homo sapiens, UniProt P68400); design: method as in PMID 22387500; conditions: cited from earlier work
T1 construct: made in house

PIM1 [2] = target: T2, PIM1 (Homo sapiens, UniProt P11309); design: method as in PMID 22387500; conditions: 10 µM inhibitor; cited from earlier work
FLT4/VEGFR3 [3] = target: T3, FLT4/VEGFR3 (Homo sapiens, UniProt P35916); design: purchased Reaction Biology Corp; method as in PMID 22387500; conditions: 10 µM inhibitor; cited from earlier work
PKD/PRKD2 = test system: PKD/PRKD2; design: method as in PMID 22387500; conditions: 10 µM inhibitor; cited from earlier work
KDR/VEGFR2 [4] = target: T4, KDR/VEGFR2 (Homo sapiens, UniProt P35968); design: purchased Reaction Biology Corp; method as in PMID 22387500; conditions: 10 µM inhibitor; cited from earlier work
CK2α = conditions: towards CK2α, radiometric assay; cited from earlier work
PIM1 [5] = target: T2, PIM1; conditions: 10 µM inhibitor, 10 µM ATP
Experimental: (§1) For this purpose 61 kinases from different representative subgroups (and CK2α and CK2α’) were tested. Testing was performed with inhibitor concentrations of 10 µM and an ATP concentration of 10 μM. The residual enzyme activity as obtained was set in relation to a control without inhibitor.

C-Met = C-Met (Homo sapiens, UniProt P08581); conditions: 10 µM inhibitor, 10 µM ATP
Experimental: as §1

KDR/VEGFR2 [6] = target: T4, KDR/VEGFR2; conditions: 10 µM inhibitor, 10 µM ATP
Experimental: as §1

FLT4/VEGFR3 [7] = target: T3, FLT4/VEGFR3; conditions: 10 µM inhibitor, 10 µM ATP
Experimental: as §1

PKA = PKA (Homo sapiens, UniProt P17612); conditions: 10 µM inhibitor, 10 µM ATP
Experimental: as §1

T1 sequence (P68400 whole entry): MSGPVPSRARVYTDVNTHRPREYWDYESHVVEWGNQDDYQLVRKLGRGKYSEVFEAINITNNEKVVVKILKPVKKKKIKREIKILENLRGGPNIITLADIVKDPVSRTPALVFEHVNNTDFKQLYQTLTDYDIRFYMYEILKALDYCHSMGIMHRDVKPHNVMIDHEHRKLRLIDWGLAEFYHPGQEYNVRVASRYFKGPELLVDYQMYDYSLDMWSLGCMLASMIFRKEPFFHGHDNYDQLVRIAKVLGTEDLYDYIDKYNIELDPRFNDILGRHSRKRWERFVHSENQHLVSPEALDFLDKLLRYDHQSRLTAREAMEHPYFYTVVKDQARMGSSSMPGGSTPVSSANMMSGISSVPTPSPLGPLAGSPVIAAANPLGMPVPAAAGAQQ
T1 sequence (P67870 whole entry partner): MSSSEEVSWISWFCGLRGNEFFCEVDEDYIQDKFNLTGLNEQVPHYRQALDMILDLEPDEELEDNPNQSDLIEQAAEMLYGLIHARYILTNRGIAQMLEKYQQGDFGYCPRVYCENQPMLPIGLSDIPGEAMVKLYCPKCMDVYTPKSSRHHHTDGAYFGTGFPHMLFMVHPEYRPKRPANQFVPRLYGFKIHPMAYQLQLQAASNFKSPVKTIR
T2 sequence (P11309 whole entry): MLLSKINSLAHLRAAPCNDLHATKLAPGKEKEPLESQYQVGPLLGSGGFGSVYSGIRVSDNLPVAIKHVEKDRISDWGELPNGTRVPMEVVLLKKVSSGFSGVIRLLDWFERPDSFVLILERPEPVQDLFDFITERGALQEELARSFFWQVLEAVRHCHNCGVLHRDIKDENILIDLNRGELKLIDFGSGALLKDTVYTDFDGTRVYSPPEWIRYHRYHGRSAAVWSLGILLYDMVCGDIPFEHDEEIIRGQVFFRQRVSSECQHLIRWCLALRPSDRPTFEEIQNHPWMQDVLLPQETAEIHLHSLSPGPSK
T4 sequence (P35968 20-1356): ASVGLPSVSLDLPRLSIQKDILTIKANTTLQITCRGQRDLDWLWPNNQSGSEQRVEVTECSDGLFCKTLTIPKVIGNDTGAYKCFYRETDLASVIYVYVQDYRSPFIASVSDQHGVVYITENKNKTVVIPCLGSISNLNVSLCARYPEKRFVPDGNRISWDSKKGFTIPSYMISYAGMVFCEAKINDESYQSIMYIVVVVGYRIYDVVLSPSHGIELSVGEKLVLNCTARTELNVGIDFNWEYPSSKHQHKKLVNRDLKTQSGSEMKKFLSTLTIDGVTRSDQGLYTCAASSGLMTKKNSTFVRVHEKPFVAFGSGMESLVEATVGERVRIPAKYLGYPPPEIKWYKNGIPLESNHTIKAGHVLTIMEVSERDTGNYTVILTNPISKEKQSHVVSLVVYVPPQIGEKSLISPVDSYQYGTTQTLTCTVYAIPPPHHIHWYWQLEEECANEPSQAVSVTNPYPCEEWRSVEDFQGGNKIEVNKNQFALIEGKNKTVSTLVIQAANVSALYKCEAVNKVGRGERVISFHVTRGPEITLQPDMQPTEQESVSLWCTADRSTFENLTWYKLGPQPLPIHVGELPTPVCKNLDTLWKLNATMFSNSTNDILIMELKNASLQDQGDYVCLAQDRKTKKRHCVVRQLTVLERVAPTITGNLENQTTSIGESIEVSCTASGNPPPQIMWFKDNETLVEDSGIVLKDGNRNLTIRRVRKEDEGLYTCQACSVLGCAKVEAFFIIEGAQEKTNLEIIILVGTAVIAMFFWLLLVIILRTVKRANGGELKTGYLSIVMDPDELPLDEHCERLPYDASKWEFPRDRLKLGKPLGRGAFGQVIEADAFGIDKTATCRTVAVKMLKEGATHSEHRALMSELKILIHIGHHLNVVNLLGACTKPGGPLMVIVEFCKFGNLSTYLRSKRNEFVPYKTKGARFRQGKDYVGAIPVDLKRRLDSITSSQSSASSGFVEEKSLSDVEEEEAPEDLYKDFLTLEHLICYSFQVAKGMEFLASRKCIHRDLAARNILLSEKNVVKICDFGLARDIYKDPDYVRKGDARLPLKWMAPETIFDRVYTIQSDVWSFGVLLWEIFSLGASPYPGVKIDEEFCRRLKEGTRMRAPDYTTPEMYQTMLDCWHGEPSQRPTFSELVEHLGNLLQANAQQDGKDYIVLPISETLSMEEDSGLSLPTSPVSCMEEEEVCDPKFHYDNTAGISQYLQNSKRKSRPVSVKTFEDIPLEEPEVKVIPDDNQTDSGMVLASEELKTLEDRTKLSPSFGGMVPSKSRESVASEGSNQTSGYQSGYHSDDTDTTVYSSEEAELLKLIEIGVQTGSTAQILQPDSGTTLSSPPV
T3 sequence (P35916 25-1363): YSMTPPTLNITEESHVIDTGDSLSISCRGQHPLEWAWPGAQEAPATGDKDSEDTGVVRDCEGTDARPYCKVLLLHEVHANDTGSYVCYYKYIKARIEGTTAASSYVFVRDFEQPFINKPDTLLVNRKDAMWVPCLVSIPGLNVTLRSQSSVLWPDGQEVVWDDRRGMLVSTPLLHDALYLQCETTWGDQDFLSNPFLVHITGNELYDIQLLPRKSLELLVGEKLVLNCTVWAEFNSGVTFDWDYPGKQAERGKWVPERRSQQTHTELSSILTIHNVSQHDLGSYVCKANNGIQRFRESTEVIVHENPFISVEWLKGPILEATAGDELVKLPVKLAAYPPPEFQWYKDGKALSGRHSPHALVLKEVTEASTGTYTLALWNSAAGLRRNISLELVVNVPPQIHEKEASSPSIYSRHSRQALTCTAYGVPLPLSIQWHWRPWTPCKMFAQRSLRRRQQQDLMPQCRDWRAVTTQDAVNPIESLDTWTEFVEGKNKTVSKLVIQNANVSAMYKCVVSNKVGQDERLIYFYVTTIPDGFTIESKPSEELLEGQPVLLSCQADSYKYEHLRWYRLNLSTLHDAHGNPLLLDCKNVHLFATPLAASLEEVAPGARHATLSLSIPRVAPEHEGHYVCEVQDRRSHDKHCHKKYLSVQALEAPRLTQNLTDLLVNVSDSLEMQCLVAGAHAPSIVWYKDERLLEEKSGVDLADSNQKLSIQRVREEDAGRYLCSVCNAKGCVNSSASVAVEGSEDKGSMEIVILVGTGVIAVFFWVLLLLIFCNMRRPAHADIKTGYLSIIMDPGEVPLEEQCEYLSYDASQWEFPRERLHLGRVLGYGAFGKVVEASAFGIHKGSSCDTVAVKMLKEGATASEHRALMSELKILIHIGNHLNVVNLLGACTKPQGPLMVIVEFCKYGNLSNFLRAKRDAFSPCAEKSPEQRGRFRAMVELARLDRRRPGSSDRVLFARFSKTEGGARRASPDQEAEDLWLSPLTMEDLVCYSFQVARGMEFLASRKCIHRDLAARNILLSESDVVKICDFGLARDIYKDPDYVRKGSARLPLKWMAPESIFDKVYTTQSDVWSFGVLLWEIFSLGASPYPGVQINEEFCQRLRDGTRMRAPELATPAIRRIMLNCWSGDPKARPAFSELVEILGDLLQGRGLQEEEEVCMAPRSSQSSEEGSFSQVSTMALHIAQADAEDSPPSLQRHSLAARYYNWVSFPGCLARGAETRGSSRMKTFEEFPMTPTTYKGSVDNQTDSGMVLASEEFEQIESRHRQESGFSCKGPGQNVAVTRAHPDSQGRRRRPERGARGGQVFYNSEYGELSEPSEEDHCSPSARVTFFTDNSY
Sequence of LCK (P06239 whole entry): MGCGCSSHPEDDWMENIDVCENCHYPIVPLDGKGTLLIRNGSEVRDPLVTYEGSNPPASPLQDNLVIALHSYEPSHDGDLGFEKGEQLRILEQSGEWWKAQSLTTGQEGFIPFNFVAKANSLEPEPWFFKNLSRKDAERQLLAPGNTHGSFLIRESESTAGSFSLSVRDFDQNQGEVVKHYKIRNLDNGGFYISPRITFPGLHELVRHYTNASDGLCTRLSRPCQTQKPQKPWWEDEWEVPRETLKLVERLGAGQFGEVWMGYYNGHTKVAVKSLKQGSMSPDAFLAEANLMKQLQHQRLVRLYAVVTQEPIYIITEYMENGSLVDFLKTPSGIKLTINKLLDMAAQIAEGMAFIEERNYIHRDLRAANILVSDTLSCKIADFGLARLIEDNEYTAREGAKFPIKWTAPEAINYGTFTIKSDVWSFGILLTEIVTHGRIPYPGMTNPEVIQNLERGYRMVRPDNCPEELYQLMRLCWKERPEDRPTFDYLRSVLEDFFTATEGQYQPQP

kinase inhibited more than 70% at 10 µM concentration (PIM1 [5]) | kinase inhibited more than 70% at 10 µM concentration (C-Met) | kinase inhibited more than 70% at 10 µM concentration (KDR/VEGFR2 [6]) | kinase inhibited more than 70% at 10 µM concentration (FLT4/VEGFR3 [7]) | kinase inhibited more than 70% at 10 µM concentration (PKA) | Compound | kinase inhibited more than 70% at 10 µM concentration (LCK) | Ki ([1]; ATP concentrations 6 µM to 400 µM) [nM] | IC50 ([1]; earlier work of the authors) [nM] | kinase inhibited more than 70% at 10 µM concentration (PIM1 [2]) | kinase inhibited more than 70% at 10 µM concentration (FLT4/VEGFR3 [3]) | kinase inhibited more than 70% at 10 µM concentration (PKD/PRKD2) | kinase inhibited more than 70% at 10 µM concentration (KDR/VEGFR2 [4]) | IC50 (CK2α) [nM]
 |  |  |  |  | Cc1ccc(NC=C2C(=O)CCc3c2oc2c(Cl)c(Cl)c(O)cc32)cc1 [4b, 6,7-dichloro-1,4-dihydro-8-hydroxy-4-[(4-methylphenylamino)methylene]dibenzo[b,d]furan-3(2H)-one] | LCK | 15 | 29 | PIM1 | FLT4/VEGFR3 | PKD/PRKD2 | KDR/VEGFR2 | 
PIM1 | C-Met | KDR/VEGFR2 | FLT4/VEGFR3 | PKA | COc1ccc(/N=C/c2c(O)ccc3c2oc2cc(Cl)c(O)c(Cl)c23)cc1 [compound 5, (E)-1,3-dichloro-6-[(4-methoxyphenylimino)methyl]dibenzo[b,d]furan-2,7-diol] |  |  |  |  |  |  |  | 7
